In patent publication US20070004653A1, “Stable lyophilized anthracycline glycosides” (priority 2005, published 2007):

Tests used:
[1] = Stability tests of stabilized Idarubicin HCl, 1% w/v aqueous solution with NH4OAc or NH4OAc + AcOH; type: physicochemical
Protocol: Starting product was idarubicin hydrochloride, 1% w/v aqueous solution, the analysis of which is shown in the data reported at t=0. 3% mol of NH4OAc with respect to idarubicin hydrochloride was added to the solution at t=0 and the solution was incubated at 4° C. for the indicated time.
Starting product was idarubicin hydrochloride, 1% w/v aqueous solution, the analysis of which is shown in the data reported at t=0. 3% mol of NH4OAc with respect to idarubicin hydrochloride was added to the solution at t=0 and the solution was incubated at 20° C. for the indicated time.
(§1) Starting product was idarubicin hydrochloride, 1% w/v aqueous solution, the analysis of which is shown in the data reported at t=0. 1% mol of NH4OAc with respect to idarubicin hydrochloride was added to the solution at t=0 and the solution was incubated at 4° C. for the indicated time.
(§2) Starting product was idarubicin hydrochloride, 1% w/v aqueous solution, the analysis of which is shown in the data reported at t=0. 1% mol of NH4OAc with respect to idarubicin hydrochloride was added to the solution at t=0 and the solution was incubated at 20° C. for the indicated time.
as §1, with “t=0. 0.5%” for “t=0. 1%”, “NH4OAc and 0.5% mol of AcOH” for “NH4OAc”, “hydrochloride were” for “hydrochloride was”
as §2, with “t=0. 0.5%” for “t=0. 1%”, “NH4OAc and 0.5% mol of AcOH” for “NH4OAc”, “hydrochloride were” for “hydrochloride was”, “indicated time as shown in table 30.” for “indicated time.”
as §1, with “t=0. 1.5%” for “t=0. 1%”, “NH4OAc and 1.5% mol of AcOH” for “NH4OAc”, “hydrochloride were” for “hydrochloride was”
as §2, with “t=0. 1.5%” for “t=0. 1%”, “NH4OAc and 1.5% mol of AcOH” for “NH4OAc”, “hydrochloride were” for “hydrochloride was”

[2] = Stability tests of lyophilized Idarubicin HCl, not stabilized and stabilized: pH, aglycone, bis-anhydro before and after lyophilization; type: physicochemical
Protocol: Starting product was idarubicin hydrochloride, 1% w/v in water, containing amount of free HCl. No additional chemicals were added. Most of the solution was frozen and lyophilized. […]
To obtain idarubicin hydrochloride containing a trace amount of free HCl, idarubicin HCl was slurried in 20 volumes of a mixture of dichloromethane:methanol (90:10) containing a 1% molar amount of HCl with respect to the molar amount of idarubicin hydrochloride. The slurry was filtered off and washed with the same solvent mixture and then dried under vacuum at room temperature, until constant weight.
Starting product was idarubicin hydrochloride: 1% w/v in water, containing a trace amount of free HCl. 1.5% mol of both NH4OAc and AcOH with respect to idarubicin hydrochloride were added. Most of the solution was frozen and lyophilized. […]
Starting product was idarubicin hydrochloride, 1% w/v in water, containing a trace amount of free HCl. The solution was first decolorized with charcoal and 1.5% mol of both NH4OAc and AcOH with respect to idarubicin hydrochloride were added. Most of the solution was frozen and lyophilized. […]
Starting product was idarubicin hydrochloride, 1% w/v in water, containing a trace amount of free HCl. 0.65% mol of both NH4OAc and AcOH (0.1% and 0.08% w/w, respectively) with respect to idarubicin hydrochloride were added. Most of the solution was frozen and lyophilized. […]
Starting product was idarubicin hydrochloride, 1% w/v in water, containing a trace amount of free HCl. 0.1% w/w of NH4HCO3 and gaseous CO2 were added. Most of the solution was frozen and lyophilized. […]
Starting product was idarubicin hydrochloride, 1% w/v in water, containing a trace amount of free HCl. 0.1% w/w of NaHCO3 and gaseous CO2 were added. Most of the solution was frozen and lyophilized. […]
Starting product was idarubicin hydrochloride, 1% w/v in water, containing a trace amount of free HCl. 1.0% molar amount of AMBERLITE® IRA-67 (1.6 M) acetate and 0.8% molar amount of acetic acid with respect to idarubicin hydrochloride were added. The solution was filtered through a 0.4 micron membrane then it was frozen and lyophilized.

[3] = NH4OAc 0.5% mol + AcOH 0.5% mol, pH 5.08, 4° C., 25 hr
[4] = NH4OAc 0.5% mol + AcOH 0.5% mol, pH 5.08, 4° C., 95 hr
[5] = NH4OAc 0.5% mol + AcOH 0.5% mol, pH 5.08, 20° C., 19 hr
[6] = NH4OAc 0.5% mol + AcOH 0.5% mol, pH 5.08, 20° C., 90 hr
[7] = NH4OAc 1% mol, pH 5.92, 4° C., 24 hr
[8] = NH4OAc 1% mol, pH 5.92, 20° C., 18 hr
[9] = NH4OAc 1% mol, pH 5.92, 20° C., 313 hr
[10] = NH4OAc 1.5% mol + AcOH 1.5% mol, pH 4.94, 4° C., 314 hr
[11] = NH4OAc 1.5% mol + AcOH 1.5% mol, pH 4.94, 20° C., 21 hr
[12] = NH4OAc 1.5% mol + AcOH 1.5% mol, pH 4.94, 20° C., 68 hr
[13] = NH4OAc 1.5% mol + AcOH 1.5% mol, pH 4.94, 20° C., 139 hr
[14] = NH4OAc 1.5% mol + AcOH 1.5% mol, pH 4.94, 20° C., 315 hr
[15] = NH4OAc 3% mol, pH 5.94, 4° C., 30 hr
[16] = NH4OAc 3% mol, pH 5.94, 4° C., 131 hr
[17] = NH4OAc 3% mol, pH 5.94, 20° C., 26 hr
[18] = NH4OAc 3% mol, pH 5.94, 20° C., 130 hr
[19] = Example 16: solution to load into lyophilizer, no additional chemicals
[20] = Example 26: solution + 1.5% mol of both NH4OAc/AcOH to load into lyophilizer
[21] = Example 27: solution decolorized with charcoal + 1.5% mol of both NH4OAc/AcOH to load into lyophilizer
[22] = Example 28: solution + 0.65% mol of both NH4OAc/AcOH to load into lyophilizer
[23] = Example 29: lyophilized product obtained (NH4HCO3 + CO2)
[24] = Example 29: solution + 0.1% w/w of NH4HCO3 and gaseous CO2 to saturation, to load into lyophilizer
[25] = Example 30: lyophilized product obtained (NaHCO3 + CO2)
[26] = Example 30: solution + 0.1% w/w of NaHCO3 and gaseous CO2 to saturation, to load into lyophilizer
[27] = Example 31: solution + 1.0% mol of IRA-67 acetate and 0.8% mol of acetic acid, slurried 2 hr, filtered, loaded into lyophilizer

## CC(=O)[C@]1(O)Cc2c(O)c3c(c(O)c2[C@@H](O[C@H]2C[C@@H](N)[C@H](O)C(C)O2)C1)C(=O)c1ccccc1C3=O.Cl (some centres unmarked) [Idarubicin HCl, Idarubicin hydrochloride]
[1]; [3]
  aglycone: 0.59%
  bis-anhydro: 0.04%
[1]; [4]
  aglycone: 0.59%
  bis-anhydro: 0.05%
[1]; NH4OAc 0.5% mol + AcOH 0.5% mol, pH 5.08, 4° C., t = 0
  aglycone: 0.59%
[1]; [5]
  aglycone: 0.59%
  bis-anhydro: 0.07%
[1]; [6]
  aglycone: 0.59%
  bis-anhydro: 0.18%
[1]; NH4OAc 0.5% mol + AcOH 0.5% mol, pH 5.08, 20° C., t = 0
  aglycone: 0.59%
[1]; [7]
  % aglycone: 0.59%
  % bis-anhydro: 0.05%
[1]; NH4OAc 1% mol, pH 5.92, 4° C., t = 0
  % aglycone: 0.59%
[1]; [8]
  % aglycone: 0.59%
  % bis-anhydro: 0.20%
[1]; [9]
  % aglycone: 0.60%
  % bis-anhydro: 4.46%
[1]; NH4OAc 1% mol, pH 5.92, 20° C., t = 0
  % aglycone: 0.59%
[1]; NH4OAc 1.5% mol + AcOH 1.5% mol, pH 4.94, 4° C., 26 hr
  aglycone: 0.59%
[1]; NH4OAc 1.5% mol + AcOH 1.5% mol, pH 4.94, 4° C., 97 hr
  aglycone: 0.59%
[1]; [10]
  aglycone: 0.59%
  bis-anhydro: 0.06%
[1]; NH4OAc 1.5% mol + AcOH 1.5% mol, pH 4.94, 4° C., t = 0
  aglycone: 0.59%
[1]; [11]
  aglycone: 0.59%
  bis-anhydro: 0.06%
[1]; [12]
  aglycone: 0.59%
  bis-anhydro: 0.16%
[1]; [13]
  aglycone: 0.59%
  bis-anhydro: 0.75%
[1]; [14]
  aglycone: 0.6%
  bis-anhydro: 6.21%
[1]; NH4OAc 1.5% mol + AcOH 1.5% mol, pH 4.94, 20° C., t = 0
  aglycone: 0.59%
[1]; [15]
  % aglycone: 0.59%
  % bis-anhydro: 0.09%
[1]; [16]
  % aglycone: 0.59%
  % bis-anhydro: 0.25%
[1]; NH4OAc 3% mol, pH 5.94, 4° C., t = 0
  % aglycone: 0.59%
[1]; [17]
  % aglycone: 0.59%
  % bis-anhydro: 0.50%
[1]; [18]
  % aglycone: 0.59%
  % bis-anhydro: 1.39%
[1]; NH4OAc 3% mol, pH 5.94, 20° C., t = 0
  % aglycone: 0.59%
[2]; Example 16: lyophilized product obtained, not stabilized
  % aglycone: 0.29%
[2]; [19]
  % aglycone: 0.14%
  pH of the solution as 1% w/v: 5.36
  pH of the solution diluted to 0.5% w/v: 6.32
[2]; Example 26: lyophilized product obtained (1.5% mol of both NH4OAc/AcOH)
  % aglycone: 0.16%
[2]; [20]
  % aglycone: 0.14%
  pH of the solution as 1% w/v: 5.14
  pH of the solution diluted to 0.5% w/v: 5.26
[2]; Example 27: lyophilized product obtained (charcoal + 1.5% mol of both NH4OAc/AcOH)
  % aglycone: 0.04%
[2]; [21]
  % aglycone: 0.03%
  pH of the solution as 1% w/v: 5.85
  pH of the solution diluted to 0.5% w/v: 6.05
[2]; Example 28: lyophilized product obtained (0.65% mol of both NH4OAc/AcOH)
  % aglycone: 0.19%
[2]; [22]
  % aglycone: 0.15%
  pH of the solution diluted to 0.5% w/v: 5.72
[2]; [23]
  % aglycone: 0.16%
  % bis-anhydro: 0.05%
[2]; [24]
  % aglycone: 0.15%
  % bis-anhydro: 0.06%
  pH of the solution diluted to 0.5% w/v: 5.73
[2]; [25]
  % aglycone: 0.16%
  % bis-anhydro: 0.05%
[2]; [26]
  % aglycone: 0.15%
  % bis-anhydro: 0.05%
  pH of the solution diluted to 0.5% w/v: 6.14
[2]; Example 31: lyophilized product obtained (IRA-67 acetate + acetic acid)
  % aglycone: 0.18%
[2]; [27]
  % aglycone: 0.15%
  pH of the solution after dilution to 0.5% w/v: 5.82
[2]; starting solid idarubicin HCl containing a trace amount of HCl
  % aglycone: 0.14%
